Assay results: US20030175319A1, “Method for controlling termite” (SUMITOMO CHEMICAL COMPANY, LIMITED, priority 2002, published 2003)

Key:
[1] = tested on: Formosan subterranean termites; assay: Test Example 2: field test, sheet formulation buried at tree stumps damaged by termites; assay type: in vivo, Coptotermes formosanus; settings: conclusion from Table 2
Description: In a place termites inhabit, two tree stumps (A and B) damaged by Formosan subterranean termites were found. The distance between A and B is about 500 m. Two wooden blocks (φ75 mm×78 mm) were buried near A and B, respectively.
After all the wooden blocks were damaged by the termites, each of about 60 g of the sheet formulation obtained in Formulation example 2 was buried in place of the damaged wooden blocks at A. On the other hand, the same sheet formulation as Formulation example 2 except that hexaflumuron was used in place of bistrifluron was used at B. Further, two of the sheet formulation were added at A and B respectively, after two weeks. […]
Soldiers are usually in their colony. At emergency, soldiers are observed.

[2] = tested on: Formosan subterranean termites (Coptotermes formosanus); assay: Test Example 1: mortality of termites released in a plastic cup with the sheet formulation; assay type: in vivo; settings: for Mortality (%): 2.5 g sheet formulation, 100 termites
Experimental: The sheet formulation obtained in Formulation example 1 or 2 (2.5 g) was put in a plastic cup (8.5 cm in diameter). The plastic cup was set inside a large cup having wet cotton for supplying moisture and 100 Formosan subterranean termites (Coptotermes formosanus) were released in the plastic cup. After 2, 4 and 8 weeks, the mortality of the termites was observed. Further, the same sheet formulation as Formulation example 2 except that hexaflumuron was used in place of bistrifluron was tested for reference.

Compound | rapidity of efficacy compared with hexaflumuron [1] | rapidity of efficacy compared with hexaflumuron ([2]; conclusion from Table 1) | Mortality (%) ([2]; after 2 weeks) | Mortality (%) ([2]; after 4 weeks) | Mortality (%) ([2]; after 8 weeks)
O=C(NC(=O)c1c(F)cccc1F)Nc1cc(C(F)(F)F)cc(C(F)(F)F)c1Cl [bistrifluron, N-[2-chloro-3,5-bis(trifluoromethyl)phenyl]-N′-(2,6-difluorobenzoyl)urea] | more rapid efficacy than hexaflumuron | more rapid efficacy than hexaflumuron | – | – | –
O=C(NC(=O)c1c(F)cccc1F)Nc1cc(Cl)c(OC(F)(F)C(F)F)c(Cl)c1 [Hexaflumuron, 1-[3,5-dichloro-4-(1,1,2,2-tetrafluoroethoxy)phenyl]-3-(2,6-difluorobenzoyl)urea] | – | – | 5% | 34% | 100%
